Measured values taken from PMC6420960 (Science translational medicine, 2015).
“Also recorded” adds a separate entry of the source. Structures can show the parent of a compound that is named as a salt. Where two headings read alike, the source gives them in different places.

How the values were obtained:
HCV-Luc [1] = test: HCV-Luc infection assay; settings: for anti-HCV activity (in words): NPC screen / confirmation assays; for EC90: read-out: HCV-Luc EC90; for selectivity ratio: human
HCV-Luc [2] = test: In vitro combination evaluation; settings: for CalcuSyn CI value: in combination with (S)-CCZ at or near their EC50 values; for MacSynergy Log volume: in combination with (S)-CCZ, Bliss independence model
H1-histamine receptor = H1-histamine receptor (Homo sapiens, UniProt P35367); test: β-arrestin H1-histamine receptor assay; assay type: cell-based
H1-histamine receptor, sequence (P35367 whole entry): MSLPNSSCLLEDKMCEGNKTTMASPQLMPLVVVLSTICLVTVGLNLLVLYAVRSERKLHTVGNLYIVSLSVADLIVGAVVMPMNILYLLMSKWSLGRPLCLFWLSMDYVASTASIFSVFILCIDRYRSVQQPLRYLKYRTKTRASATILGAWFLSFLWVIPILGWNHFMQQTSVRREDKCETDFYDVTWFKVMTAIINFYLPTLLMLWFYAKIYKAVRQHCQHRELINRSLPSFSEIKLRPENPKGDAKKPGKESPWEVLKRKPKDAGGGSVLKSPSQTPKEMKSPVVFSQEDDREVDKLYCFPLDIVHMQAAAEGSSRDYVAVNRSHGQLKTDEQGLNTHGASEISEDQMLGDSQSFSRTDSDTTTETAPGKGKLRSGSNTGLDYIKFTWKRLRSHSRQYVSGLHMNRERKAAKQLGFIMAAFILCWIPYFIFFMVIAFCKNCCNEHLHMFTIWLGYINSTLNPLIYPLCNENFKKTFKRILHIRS

[3] = system: wild-type HCVcc (genotype 2a, JFH-1 strain); assay type: cell-based, Hepatitis C virus; settings: 10 μM; compared with DMSO treatment
Huh7.5.1 cells [4] = system: Huh7.5.1 cells
wild-type HCVcc = assay type: cell-based, Hepatitis C virus; settings: primary human hepatocytes; titration, dose-dependent manner
[5] = system: HCV chimeric genotype viruses (1a, 1b, 2a, 2b, 3a, 4a, 5a, 6a, and 7a); test: HCV chimeric genotype virus infection of Huh7.5.1 cells; assay type: cell-based, Hepatitis C virus; settings: 10 μM
HCVsc, genotype 2a = assay type: cell-based, Hepatitis C virus; settings: 10 μM
[6] = system: genotype 1b and 2a HCV replicon cell lines; assay type: cell-based, Hepatitis C virus; settings: 10 μM
[7] = system: genotype 1a replicon in Huh7.5.1 cells; assay type: cell-based, Hepatitis C virus; settings: 10 μM
HCVpp genotype 1a and 1b = assay type: cell-based, Hepatitis C virus; settings: 10 μM; Huh7.5.1 cells
HCV-Luc [8] = test: Time-of-addition experiment; assay type: cell-based, Hepatitis C virus; settings: for inhibitory kinetics, time-of-addition profile: bafilomycin A1 10 nM, sofosbuvir 10 μM, 2-hour incubations; for effect on viral level, time of addition: treatment during the attachment step
[9] = system: dengue reporter virus particle; test: Dengue reporter virus particle; assay type: cell-based; settings: read-out: EC50 in dengue RVP assay
[10] = Cytotoxicity in the dengue RVP assay; assay type: cell-based
[11] = system: hepatitis B virus, HCV replicon, herpes simplex virus-1, human cytomegalovirus, vaccinia virus, dengue virus, influenza A (H1N1) virus, respiratory syncytial …; assay type: cell-based
HCV-Luc [12] = test: HCV-Luc assay in 40% human serum; assay type: cell-based, Hepatitis C virus; settings: read-out: protein binding adjusted EC50
HCV genotype 1b = assay type: in vivo, Alb-uPA/SCID mice engrafted with primary human hepatocytes
Huh7.5.1 cells [13] = system: Huh7.5.1 cells; remark: listed apart in the source
[14] = day 28
[15] = Mouse pharmacokinetics and tissue distribution, single intraperitoneal dose; settings: for brain levels (in words): (S)-CCZ 50 mg/kg, (S)-nor-CCZ 10 mg/kg, single intraperitoneal dose
[16] = mouse, in vivo, ip, 10 mg/kg
HIV = settings: cited from earlier work
ATPlite assay = settings: human, Huh7.5.1 cells
[17] = Microsomal stability assay, human microsomes; assay type: in vitro ADME
[18] = Microsomal stability assay, mouse microsomes; assay type: in vitro ADME
[19] = read-out: HCV-Luc EC50, Huh7.5.1 cells, luciferase signal 48 hours after treatment
[20] = Huh7.5.1 cells, luciferase signal 48 hours after treatment

## O=C(O)COCCN1CCN(C(c2ccccc2)c2ccc(Cl)cc2)CC1 (stereo not shown) [Cetirizine]
HCV-Luc [1]
  anti-HCV activity (in words): not active

## IFN-α
HCV-Luc [2]
  CalcuSyn CI value: 0.609 ± 0.128
  MacSynergy Log volume: +++ (strong synergy (log volume ≥ 9))

## NCCc1c[nH]cn1 [Histamine]
HCV-Luc [1]
  anti-HCV activity (in words): no anti-HCV activity; also recorded: no effect on HCV infection

## NC(=O)c1ncn([C@@H]2O[C@H](CO)[C@@H](O)[C@H]2O)n1 [Ribavirin]
HCV-Luc [2]
  CalcuSyn CI value: 0.630 ± 0.106
  MacSynergy Log volume: +++ (strong synergy (log volume ≥ 9))

## CN1CCN([C@H](c2ccccc2)c2ccc(Cl)cc2)CC1 [(R)-CCZ]
H1-histamine receptor
  Antihistamine activity at 10 nM: 88.00%
[3]
  Intracellular and extracellular viral RNA levels: significantly reduced
Huh7.5.1 cells [4]
  CC50: 37500 ± 4150 nM
HCV-Luc [1]; [19]
  EC50: 20 ± 5 nM
HCV-Luc [1]; [20]
  EC90: 1090 ± 370 nM

## CN1CCN([C@@H](c2ccccc2)c2ccc(Cl)cc2)CC1 [(S)-CCZ]
H1-histamine receptor
  Antihistamine activity at 10 nM: 41.70%
[3]
  Intracellular and extracellular viral RNA levels: significantly reduced
wild-type HCVcc
  intracellular HCV RNA level: inhibited
[5]
  extracellular HCV RNA levels and infectivity (TCID50/ml): inhibited
HCVsc, genotype 2a
  inhibitory activity in the HCVsc assay: strong inhibitory activity
[6]
  inhibitory effect on HCV replicon: did not exert a significant inhibitory effect
[7]
  HCV replication, transient replicon: not inhibited
HCVpp genotype 1a and 1b
  inhibitory effect on HCVpp entry: no significant inhibitory effect
HCV-Luc [8]; added 2 or 3 hours after entry
  inhibition of infection, time of addition: no significant inhibition
HCV-Luc [8]; added 1 hour after synchronous entry
  inhibition of infection, time of addition: Less inhibitory effect
HCV-Luc [8]; added during viral attachment at 4°C for 2 hours or during the first 2 hours of synchronous entry at 37°C
  inhibition of infection, time of addition: potent inhibition
[9]
  EC50: 1880 nM
[10]
  CC50: > 31600 nM
[11]
  antiviral activity in NIAID antiviral screen: little or no antiviral activity
HCV-Luc [12]
  EC50: 240 nM
HCV genotype 1b; 2 mg/kg daily for 4 weeks
  decrease of genotype 1b virus titer: about 1 log
HCV genotype 1b; 50 and 10 mg/kg daily for 4 weeks, genotype 1b
  reduction of HCV titers from pretreatment baseline: 2 log
HCV genotype 1b; genotype 1b and 2a infections
  HCV titers during the treatment period (drug resistance): without rebound
Huh7.5.1 cells [4]
  CC50: 33400 ± 2440 nM
Huh7.5.1 cells [13]; 10 μM
  cytotoxicity after continuous treatment for 21 days: low cytotoxicity
Huh7.5.1 cells [13]; 1.0 and 5.0 μM
  cytotoxicity after continuous treatment for 21 days: no cytotoxicity
[14]; 2 mg/kg group
  liver to plasma ratio: 38
[14]; 10 mg/kg group
  liver to plasma ratio: 41
[14]; (S)-CCZ dose of 2 mg/kg
  liver concentration: 0.342 µM
[14]; (S)-CCZ dose of 10 mg/kg
  liver concentration: 2.66 µM
HCV-Luc [1]; [19]
  EC50: 24 ± 9 nM
HCV-Luc [1]; [20]
  EC90: 1440 ± 430 nM
[15]; 50 mg/kg intraperitoneal, assuming liver density 1.0 g/ml
  ratio of liver to plasma: 29.6
[15]
  brain levels (in words): comparable to liver levels

## Clc1ccc(Cn2c(CN3CCCC3)nc3ccccc32)cc1 [clemizole]
HCV-Luc [1]
  anti-HCV activity (in words): much less potent activity

## O[C@H]1[C@H]2c3cc4c(cc3CN3CCC(=C[C@@H]1O)[C@H]23)OCO4 [Lycorine-HCl, reference compound]
[9]
  EC50: 40.6 nM
[10]
  CC50: > 31600 nM

## CC(C)OC(=O)[C@H](C)N[P@](=O)(OC[C@H]1O[C@@H](n2ccc(=O)[nH]c2=O)[C@](C)(F)[C@@H]1O)Oc1ccccc1 [Sofosbuvir]
HCV-Luc [8]
  inhibitory kinetics, time-of-addition profile: inhibited HCVcc infection when added at all the time points except during the attachment stage
  effect on viral level, time of addition: no effect on viral level
HCV-Luc [2]
  CalcuSyn CI value: 0.362 ± 0.075
  MacSynergy Log volume: +++ (strong synergy (log volume ≥ 9))

## CC(C)(C)NC(=O)N[C@H](C(=O)N1C[C@H]2[C@@H]([C@H]1C(=O)NC(CC1CCC1)C(=O)C(N)=O)C2(C)C)C(C)(C)C (stereo partly shown) [Boceprevir]
HCV-Luc [2]
  CalcuSyn CI value: 0.691 ± 0.114
  MacSynergy Log volume: +++ (strong synergy (log volume ≥ 9))

## Clc1ccc([C@H](c2ccccc2)N2CCNCC2)cc1 [(S)-Nor-CCZ]
H1-histamine receptor
  Antihistamine activity at 10 nM: 2.24%
Huh7.5.1 cells [4]
  CC50: 9310 ± 40 nM
[16]
  T1/2 compared to (S)-CCZ (in words): longer T1/2
[14]; (S)-CCZ dose of 2 mg/kg
  liver concentration: 3.16 µM
[14]; (S)-CCZ dose of 10 mg/kg
  liver concentration: 12.1 µM
HCV-Luc [1]; [19]
  EC50: 34 ± 12 nM
HCV-Luc [1]; [20]
  EC90: 578 ± 99 nM
[15]; 10 mg/kg intraperitoneal
  ratio of average concentration in liver to plasma: 60.7
[15]
  brain levels (in words): comparable to liver levels

## COC(=O)N[C@H](C(=O)N1CCC[C@H]1c1nc(-c2ccc(-c3ccc(-c4c[nH]c([C@@H]5CCCN5C(=O)[C@@H](NC(=O)OC)C(C)C)n4)cc3)cc2)c[nH]1)C(C)C [Daclatasvir]
HCV-Luc [2]
  CalcuSyn CI value: 0.427 ± 0.142
  MacSynergy Log volume: +++ (strong synergy (log volume ≥ 9))

## NC(=O)COCCN1CCN(C(c2ccccc2)c2ccc(Cl)cc2)CC1 (stereo not shown) [cetirizine amide]
HCV-Luc [1]; [19]
  EC50: 103 nM

## CN1CCCN(C(c2ccccc2)c2ccc(Cl)cc2)CC1 (stereo not shown) [homochlorcyclizine]
HCV-Luc [1]; Hepatitis C virus
  EC50: ~50 nM
HCV-Luc [1]
  selectivity ratio: 318 to 924

## OCCOCCN1CCN(C(c2ccccc2)c2ccc(Cl)cc2)CC1 (stereo not shown) [hydroxyzine]
HCV-Luc [1]; Hepatitis C virus
  EC50: ~50 nM
HCV-Luc [1]
  selectivity ratio: 318 to 924

## CN1CCN(C(c2ccccc2)c2ccc(Cl)cc2)CC1 (racemic) [Racemic CCZ, chlorcyclizine HCl]
H1-histamine receptor
  Antihistamine activity at 10 nM: 72.60%
[3]
  Intracellular and extracellular viral RNA levels: significantly reduced
HIV
  activity against HIV: reported activity against HIV
HCV-Luc [1]; Hepatitis C virus
  EC50: ~50 nM
HCV-Luc [1]; Hepatitis C virus, Huh-7.5.1, 48 h, read-out: HCV-Luc EC50
  EC50: 44 ± 11 nM
HCV-Luc [1]; Hepatitis C virus, Huh-7.5.1, 48 h
  EC90: 1400 ± 450 nM
ATPlite assay
  CC50: 49800 ± 17200 nM

## Clc1ccc(C(c2ccccc2)N2CCNCC2)cc1 (stereo not shown) [nor-CCZ, nor-chlorcyclizine]
[17]
  half-life: > 1.67 h
[18]
  T1/2 in mice (microsomes) relative to CCZ: more than fourfold longer
Huh7.5.1 cells [4]
  cytotoxicity compared with CCZ (in words): higher cytotoxicity
HCV-Luc [1]
  anti-HCV activity (in words): comparable to that of CCZ
  selectivity ratio: 188

## CCC[C@H](NC(=O)[C@@H]1[C@H]2CCC[C@H]2CN1C(=O)[C@@H](NC(=O)[C@@H](NC(=O)c1cnccn1)C1CCCCC1)C(C)(C)C)C(=O)C(=O)NC1CC1 [Telaprevir]
HCV-Luc [2]
  CalcuSyn CI value: 0.426 ± 0.138
  MacSynergy Log volume: +++ (strong synergy (log volume ≥ 9))

## CN1CCN(C(c2ccccc2)c2ccccc2)CC1 [Cyclizine]
HCV-Luc [1]; relative to CCZ
  lower activity than CCZ: 10 fold

## CO/C1=C\C(C)=C\[C@@H](C)[C@@H](O)[C@@H](C)C/C(C)=C/C=C/[C@H](OC)[C@@H]([C@@H](C)[C@@H](O)[C@H](C)[C@@]2(O)C[C@@H](O)[C@H](C)[C@@H](C(C)C)O2)OC1=O [Bafilomycin A1]
HCV-Luc [8]
  inhibitory kinetics, time-of-addition profile: only showed significant inhibitory effect when added during the first 2 hours of synchronous entry
  effect on viral level, time of addition: no effect on viral level
